# Results published in PMC11879040, “Advancing systemic toxicity risk assessment: Evaluation of a NAM-based toolbox approach” (Toxicological Sciences, 2024).
# Where a name gives a salt, the structure may show the parent alone. Read-outs that look alike come from different tables or passages of the source.
# Experiments:
# [1] = test system: Potassium Voltage-Gated Channel Kv non-selective, KCNQ1 (r); experiment: IPP KCNQ1 binding (antagonist radioligand); set-up: species or system rat
# [2] = test system: Gamma-aminobutyric acid receptor subunit alpha-1 BZD site, GABRA1A (r); assay type: binding, rat; settings: control diazepam
# [3] = test system: Sodium channel protein type 5 subunit alpha (site 2), SCN5A (r); assay type: binding, rat
# [4] = molecular target: Tyrosine-protein kinase Lck, LCK (h) (Homo sapiens, UniProt P06239); experiment: IPP LCK enzymatic activity; assay type: biochemical; settings: Enzymatic activity; control staurosporine; read-out: IPP Dose Response PoD: LCK
# [5] = test system: Thyroid hormone receptor alpha, THRA (h); experiment: IPP THRA coactivator recruitment (agonist); assay type: biochemical, human; settings: agonist, T3
# [6] = test system: Tubulin (r); experiment: IPP Tubulin binding; set-up: species or system rat
# [7] = test system: HepG2 cells; experiment: Cell stress panel (CSP), 24 h, 8 concentrations, BIFROST global PoD; assay type: cell-based; settings: HepG2; cell stress panel PoD
# Description: Compounds were tested using the previously developed cell stress panel ([Hatherell et al. 2020]) and the expanded biomarker panel outlined in Middleton et al. HepG2 cells were treated with all compounds for 24 h across 8 concentrations prior to biomarker analysis. The same plate layout and number of replicates (3 biological and 2 technical) were used as previously for each assay within the panel.
# [8] = test system: Glutamate receptor ionotropic NMDA 1 non-selective, GRIN1 (r)
# [9] = molecular target: 5-hydroxytryptamine receptor 2B, HTR2B (h) (Homo sapiens, UniProt P41595)
# [10] = molecular target: Voltage-dependent L-type Ca2+ channel (dihydropyridine site), CACNA1C (r) (Rattus norvegicus, UniProt P22002); assay type: binding
# [11] = molecular target: T1, Adenosine receptor A2a, ADORA2A (h) (Homo sapiens, UniProt P29274); experiment: IPP ADORA2A binding (agonist radioligand); settings: control NECA
# T1 construct: purchased Eurofins Cerep (SafetyScreen44-based IPP panel)
# [12] = test system: HepG2 cells; experiment: High-throughput transcriptomics (HTTr, TempO-Seq), HepG2, 24 h; assay type: cell-based, human; settings: HepG2; for pod_httr_bifrost PoD: HTTr BIFROST PoD; for podl_path_minbmd PoD: HTTr minimum pathway BMD(L)
# Description: (§1) HepG2, HepaRG, and MCF7 cells were treated with each compound for 24 h across a dose range of 7 concentrations and lysed using TempO-Seq lysis buffer (BioSpyder Technologies, proprietary kit, see [Middleton et al. 2022] for method details). Sequencing was performed using TempO-Seq (BioClavis) version 2 of the human whole transcriptome panel and analyzed as described previously in Middleton et al.
# [13] = test system: HepaRG cells; experiment: High-throughput transcriptomics (HTTr, TempO-Seq), HepaRG, 24 h; assay type: cell-based, human; settings: HepaRG; for pod_httr_bifrost PoD: HTTr BIFROST PoD; for podl_path_minbmd PoD: HTTr minimum pathway BMD(L)
# Description: as §1
# [14] = test system: MCF7 cells; experiment: High-throughput transcriptomics (HTTr, TempO-Seq), MCF7, 24 h; assay type: cell-based, human; settings: MCF-7; for pod_httr_bifrost PoD: HTTr BIFROST PoD; for podl_path_minbmd PoD: HTTr minimum pathway BMD(L)
# Description: as §1
# [15] = test system: 63 targets with known safety liabilities; experiment: In vitro pharmacological profiling (IPP) panel, screening at 10 or 100 µM and dose response, minimum IC50/AC50; assay type: biochemical; settings: read-out: ipp_lowest_ac50_systemic PoD
# [16] = test system: rat; settings: rat, cited from earlier work
# [17] = cited from earlier work
# [18] = single value or median, ref [2],[4],[6],[7],[8],[10],[11],[15],[18],[27],[34], cited from earlier work
# [19] = PBK level L2; taken or scaled from references (median where several); ref [6],[7],[10],[19]; cited from earlier work
# [20] = hepatic intrinsic clearance (Clint); settings: PBK level L3; optimised against clinical data; per chemical [8],[9],[14],[16],[22],[24],[25],[29],[30],[32]
# [21] = Assignment of risk classifications to benchmark chemical-exposure scenarios; settings: for risk: Oral, Therapeutic, Tablet, from table S1
# [22] = human
# [23] = per chemical see Peff Reference, cited from earlier work
# [24] = PBK model plasma Cmax estimate (Gastroplus 9.8; levels L1, L2, L3); set-up: species or system human
# [25] = molecular target: Potassium voltage-gated channel subfamily H member 2 hERG, KCNH2 (h) (Homo sapiens, UniProt Q12809); settings: human
# [26] = 10 uM, ligand/control Colchicine
# [27] = IPP screening at 10 uM, control CGS 19755
# [28] = 100 uM, * denotes assay interference (2-Amino-6-chloro-4-nitrophenol, HC Red 3)
# [29] = IV bolus 4 mg, patients hospitalized with community-acquired pneumonia, calibration, ref Spoorenberg et al. 2014
# [30] = Oral tablet 6 mg, fasted, 6 female healthy Asian, validation, ref Jobe et al. 2020
# [31] = Oral tablet 6 mg, fasted, patients hospitalized with community-acquired pneumonia, validation, ref Spoorenberg et al. 2014
# T1 sequence (P29274 whole entry): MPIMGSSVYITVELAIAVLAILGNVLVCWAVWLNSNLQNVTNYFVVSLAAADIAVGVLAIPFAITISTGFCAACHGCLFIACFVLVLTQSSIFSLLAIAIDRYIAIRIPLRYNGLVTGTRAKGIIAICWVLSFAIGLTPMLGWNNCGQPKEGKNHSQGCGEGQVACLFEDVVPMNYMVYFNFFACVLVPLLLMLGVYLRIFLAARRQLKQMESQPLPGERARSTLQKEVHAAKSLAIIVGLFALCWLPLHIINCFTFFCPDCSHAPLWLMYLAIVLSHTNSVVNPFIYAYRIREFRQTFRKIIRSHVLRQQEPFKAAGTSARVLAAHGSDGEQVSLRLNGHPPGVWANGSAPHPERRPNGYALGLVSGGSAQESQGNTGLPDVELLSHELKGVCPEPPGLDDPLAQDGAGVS
# Voltage-dependent L-type Ca2+ channel (dihydropyridine site), CACNA1C (r), sequence (P22002 whole entry): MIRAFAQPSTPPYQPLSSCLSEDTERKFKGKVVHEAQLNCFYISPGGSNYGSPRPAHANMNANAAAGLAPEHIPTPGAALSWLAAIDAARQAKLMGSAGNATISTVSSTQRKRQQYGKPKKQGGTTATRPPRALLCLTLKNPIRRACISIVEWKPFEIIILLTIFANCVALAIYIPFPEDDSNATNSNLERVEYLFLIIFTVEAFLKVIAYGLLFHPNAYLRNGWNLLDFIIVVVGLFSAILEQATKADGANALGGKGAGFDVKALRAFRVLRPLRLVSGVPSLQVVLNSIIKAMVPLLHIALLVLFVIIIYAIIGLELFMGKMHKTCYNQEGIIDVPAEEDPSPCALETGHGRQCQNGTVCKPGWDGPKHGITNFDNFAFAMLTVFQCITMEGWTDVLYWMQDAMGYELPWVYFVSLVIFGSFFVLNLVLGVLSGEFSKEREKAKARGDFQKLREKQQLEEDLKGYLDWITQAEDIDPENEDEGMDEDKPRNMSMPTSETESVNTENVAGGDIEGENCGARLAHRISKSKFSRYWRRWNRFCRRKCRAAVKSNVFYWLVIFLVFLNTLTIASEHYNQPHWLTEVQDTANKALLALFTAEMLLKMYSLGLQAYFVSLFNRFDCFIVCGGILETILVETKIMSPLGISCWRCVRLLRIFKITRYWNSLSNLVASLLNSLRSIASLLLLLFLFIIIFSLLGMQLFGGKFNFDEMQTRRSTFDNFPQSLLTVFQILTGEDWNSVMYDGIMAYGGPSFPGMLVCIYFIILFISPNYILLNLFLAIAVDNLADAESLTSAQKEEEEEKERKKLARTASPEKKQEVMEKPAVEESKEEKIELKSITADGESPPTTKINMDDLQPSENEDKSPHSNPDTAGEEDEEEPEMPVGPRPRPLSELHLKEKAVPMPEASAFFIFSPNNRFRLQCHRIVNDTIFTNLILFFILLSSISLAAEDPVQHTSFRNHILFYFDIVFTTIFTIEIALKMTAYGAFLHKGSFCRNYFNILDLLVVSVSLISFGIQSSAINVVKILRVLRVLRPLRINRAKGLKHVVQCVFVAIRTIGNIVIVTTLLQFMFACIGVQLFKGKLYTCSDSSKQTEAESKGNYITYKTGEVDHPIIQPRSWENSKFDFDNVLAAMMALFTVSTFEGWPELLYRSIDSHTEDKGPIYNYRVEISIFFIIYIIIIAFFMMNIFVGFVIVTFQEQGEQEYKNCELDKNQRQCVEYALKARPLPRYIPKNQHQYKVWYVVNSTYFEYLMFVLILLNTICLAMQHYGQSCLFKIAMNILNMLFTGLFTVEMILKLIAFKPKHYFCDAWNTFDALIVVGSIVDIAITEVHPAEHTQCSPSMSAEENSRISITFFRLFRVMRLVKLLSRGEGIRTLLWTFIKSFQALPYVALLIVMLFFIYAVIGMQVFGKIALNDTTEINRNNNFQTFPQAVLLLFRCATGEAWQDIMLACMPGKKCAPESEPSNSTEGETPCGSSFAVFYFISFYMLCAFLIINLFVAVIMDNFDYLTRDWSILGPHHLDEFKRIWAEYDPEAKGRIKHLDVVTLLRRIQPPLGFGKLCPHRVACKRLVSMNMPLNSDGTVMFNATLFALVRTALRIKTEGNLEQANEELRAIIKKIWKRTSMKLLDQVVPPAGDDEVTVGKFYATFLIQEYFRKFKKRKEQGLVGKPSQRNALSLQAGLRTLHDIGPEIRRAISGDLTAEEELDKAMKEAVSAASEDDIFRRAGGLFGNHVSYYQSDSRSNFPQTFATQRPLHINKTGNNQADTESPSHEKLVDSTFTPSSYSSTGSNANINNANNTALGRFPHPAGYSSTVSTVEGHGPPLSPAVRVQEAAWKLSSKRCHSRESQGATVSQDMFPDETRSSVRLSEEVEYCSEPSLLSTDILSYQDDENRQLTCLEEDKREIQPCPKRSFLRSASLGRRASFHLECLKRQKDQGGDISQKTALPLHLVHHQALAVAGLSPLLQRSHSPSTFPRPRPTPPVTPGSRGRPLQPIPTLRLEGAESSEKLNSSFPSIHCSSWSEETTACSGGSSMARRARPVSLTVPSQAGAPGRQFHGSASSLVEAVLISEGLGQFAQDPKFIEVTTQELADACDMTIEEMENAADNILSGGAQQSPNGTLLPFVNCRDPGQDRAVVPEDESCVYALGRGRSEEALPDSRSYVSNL
# 5-hydroxytryptamine receptor 2B, HTR2B (h), sequence (P41595 whole entry): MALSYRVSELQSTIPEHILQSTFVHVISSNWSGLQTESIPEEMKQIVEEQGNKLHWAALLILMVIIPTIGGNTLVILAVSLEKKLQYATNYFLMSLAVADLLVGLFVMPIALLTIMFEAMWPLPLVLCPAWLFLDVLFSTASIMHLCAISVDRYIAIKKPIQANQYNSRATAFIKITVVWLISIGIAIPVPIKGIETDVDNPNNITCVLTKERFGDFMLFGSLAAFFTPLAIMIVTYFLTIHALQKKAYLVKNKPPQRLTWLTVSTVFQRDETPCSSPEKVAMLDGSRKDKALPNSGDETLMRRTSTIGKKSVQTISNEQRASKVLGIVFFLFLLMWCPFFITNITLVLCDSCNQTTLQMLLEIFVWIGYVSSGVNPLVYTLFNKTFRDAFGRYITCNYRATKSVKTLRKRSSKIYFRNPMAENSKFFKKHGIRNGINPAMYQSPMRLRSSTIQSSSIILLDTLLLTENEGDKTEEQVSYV
# Tyrosine-protein kinase Lck, LCK (h), sequence (P06239 whole entry): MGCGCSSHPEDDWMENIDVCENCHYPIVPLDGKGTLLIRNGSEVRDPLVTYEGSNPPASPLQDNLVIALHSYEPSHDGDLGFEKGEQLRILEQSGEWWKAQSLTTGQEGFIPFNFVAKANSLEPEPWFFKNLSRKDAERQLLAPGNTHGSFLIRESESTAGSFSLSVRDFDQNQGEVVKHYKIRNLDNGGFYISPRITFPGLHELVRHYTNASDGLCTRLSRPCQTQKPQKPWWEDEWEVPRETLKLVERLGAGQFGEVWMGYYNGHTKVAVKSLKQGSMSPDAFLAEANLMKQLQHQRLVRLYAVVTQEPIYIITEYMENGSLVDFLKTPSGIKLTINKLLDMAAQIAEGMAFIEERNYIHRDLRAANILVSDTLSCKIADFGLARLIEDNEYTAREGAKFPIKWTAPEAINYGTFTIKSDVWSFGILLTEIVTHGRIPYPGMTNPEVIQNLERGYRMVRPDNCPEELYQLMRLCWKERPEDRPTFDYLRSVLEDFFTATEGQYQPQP
# Potassium voltage-gated channel subfamily H member 2 hERG, KCNH2 (h), sequence (Q12809 whole entry): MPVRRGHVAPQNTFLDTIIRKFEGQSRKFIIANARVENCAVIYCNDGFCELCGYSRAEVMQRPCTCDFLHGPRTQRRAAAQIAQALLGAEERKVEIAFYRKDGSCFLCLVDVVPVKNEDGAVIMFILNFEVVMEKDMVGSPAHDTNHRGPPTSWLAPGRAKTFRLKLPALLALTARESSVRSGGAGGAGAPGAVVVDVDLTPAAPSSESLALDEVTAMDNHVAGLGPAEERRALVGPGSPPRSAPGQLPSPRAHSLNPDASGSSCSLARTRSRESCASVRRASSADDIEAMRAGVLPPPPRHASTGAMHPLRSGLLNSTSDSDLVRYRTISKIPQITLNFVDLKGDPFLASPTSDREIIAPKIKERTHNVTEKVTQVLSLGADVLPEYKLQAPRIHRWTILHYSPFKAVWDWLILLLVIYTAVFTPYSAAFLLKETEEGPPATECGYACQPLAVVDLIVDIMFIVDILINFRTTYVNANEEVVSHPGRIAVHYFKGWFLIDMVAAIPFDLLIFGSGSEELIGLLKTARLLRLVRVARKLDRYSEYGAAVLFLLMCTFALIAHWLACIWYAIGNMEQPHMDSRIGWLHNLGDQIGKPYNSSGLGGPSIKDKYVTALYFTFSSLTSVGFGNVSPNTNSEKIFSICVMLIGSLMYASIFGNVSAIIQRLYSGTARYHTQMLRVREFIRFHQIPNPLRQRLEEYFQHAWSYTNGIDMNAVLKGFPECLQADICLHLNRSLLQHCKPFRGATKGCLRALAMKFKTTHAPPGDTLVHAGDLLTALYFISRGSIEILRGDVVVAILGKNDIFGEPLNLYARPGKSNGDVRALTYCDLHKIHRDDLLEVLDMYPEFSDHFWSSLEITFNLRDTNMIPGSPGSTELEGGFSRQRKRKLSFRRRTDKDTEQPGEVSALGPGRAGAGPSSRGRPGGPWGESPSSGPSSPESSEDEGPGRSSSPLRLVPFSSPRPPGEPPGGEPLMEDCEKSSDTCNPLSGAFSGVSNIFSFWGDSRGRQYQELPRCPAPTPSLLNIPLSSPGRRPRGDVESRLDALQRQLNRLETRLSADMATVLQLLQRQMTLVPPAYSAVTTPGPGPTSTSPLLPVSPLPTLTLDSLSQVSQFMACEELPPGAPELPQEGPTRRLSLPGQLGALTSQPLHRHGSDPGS
structure (smiles),measurement,setting,value
"COc1ccc(CCN(C)CCCC(C#N)(c2ccc(OC)c(OC)c2)C(C)C)cc1OC (centres unmarked) [Verapamil Hydrochloride, 2-(3,4-Dimethoxyphenyl)-5-{[2-(3,4-dimethoxyphenyl)ethyl](methyl)amino}-2-(propan-2-yl)pentanenitrile--hydrogen chloride (1/1)]",Specific binding,[1],4.7%
same,Specific binding,[2]; IPP screening at 10 uM,-6.7%
same,Specific binding,[3],74.6%
same,IC50,[4],> 35.8 µM
same,"IPP screening %, Coactivator recruitment",[5]; 10 uM,1.0%
same,"IPP screening %, Specific binding",[6]; [26],13.0%
same,pod_cell_stress PoD,[7],0.6383 µM
same,Specific binding,[8]; [27],2.5%
same,leading IPP PoD (target),[9],antagonism of the serotonin 2B receptor
"C[C@@H]1C[C@H]2[C@@H]3CCC4=CC(=O)C=C[C@]4(C)[C@@]3(F)[C@@H](O)C[C@]2(C)[C@@]1(O)C(=O)CO [Dexamethasone, 9-Fluoro-11beta,17,21-trihydroxy-16alpha-methylpregna-1,4-diene-3,20-dione]",Specific binding,[10],-36.4%
same,Specific binding,"[1]; IPP screening at 100 uM, control α-dendrotoxin",-4.1%
same,Specific binding,[2]; IPP screening at 100 uM,27.9%
same,Specific binding,[3],11.2%
same,Specific binding,[11]; IPP screening at 100 uM,-9.1%
same,"IPP screening %, Coactivator recruitment",[5]; [28],3.0%
same,"IPP screening %, Specific binding","[6]; 100 uM, ligand/control Colchicine",-8.0%
same,pod_cell_stress PoD,[7],14.5194 µM
same,pod_httr_bifrost PoD,[12],0.0003269 µM
same,podl_path_minbmd PoD,[12],69.6957 µM
same,pod_httr_bifrost PoD,[13],3.5452 µM
same,podl_path_minbmd PoD,[13],74.2662 µM
same,pod_httr_bifrost PoD,[14],9.79e-05 µM
same,podl_path_minbmd PoD,[14],6.367 µM
same,AC50,"[15]; lowest AC50 across IPP panel (systemic targets), cell_type -",0.00315 µM
same,Specific binding,"[8]; IPP screening at 100 uM, control CGS 19755",10.7%
same,PoD (NOAEL),"[16]; endocrine toxicity study, ref ECFA ADI",0.001 mg/kg bw/day
same,Reported AUC0-t,[17]; [29],507.3 ng·h/mL
same,Reported cmax,[17]; [29],0.0964 µg/mL
same,Reported tmax,[17]; [29],0 h
same,Reported AUC0-t,[17]; [30],689.3 ng·h/mL
same,Reported cmax,[17]; [30],0.0822 µg/mL
same,Reported tmax,[17]; [30],1.53 h
same,Reported AUC0-t,[17]; [31],746.6 ng·h/mL
same,Reported cmax,[17]; [31],0.0643 µg/mL
same,Reported tmax,[17]; [31],1.4 h
same,Fup,[18]; PBK level L2,26.3%
same,Fup,[18]; PBK level L3,26.3%
same,Intrinsic Liver Clearance,[19],107.8 L/h
same,Intrinsic Liver Clearance,[20],23.37 L/h
same,Risk Classification,[21]; Oral tablet 0.5 mg/day,High risk
same,Risk Classification,[21]; Oral tablet 10 mg/day,High risk
same,risk,"[21]; 0.5mg/day, Exp3",1
same,risk,"[21]; 10mg/day, Exp4",1
"NS(=O)(=O)c1cc(C(=O)O)c(NCc2ccco2)cc1Cl [Furosemide, 4-Chloro-2-{[(furan-2-yl)methyl]amino}-5-sulfamoylbenzoic acid]",Specific binding,[11]; IPP screening at 100 uM,15.2%
same,"IPP screening %, Coactivator recruitment",[5]; [28],-1.0%
same,"IPP screening %, Specific binding",[6],-4.0%
same,pod_cell_stress PoD,[7],2.832 µM
same,pod_httr_bifrost PoD,[12],3.253 µM
same,podl_path_minbmd PoD,[12],177.032 µM
same,pod_httr_bifrost PoD,[13],0.2929 µM
same,podl_path_minbmd PoD,[13],1.613 µM
same,pod_httr_bifrost PoD,[14],72.7631 µM
same,podl_path_minbmd PoD,[14],520.886 µM
same,AC50,[15],1.38 µM
same,Specific binding,[8],5.8%
same,risk,[22],1
same,PoD (NOEL),"[16]; chronic, ref NTP study",46.9 mg/kg bw/day
same,Peff,"[23]; PBK level L2, ref [3],[4],[11]",0.41 cm/s x E-04
same,Peff,"[23]; PBK level L3, ref [4],[11]",0.41 cm/s x E-04
"C[C@H]1O[C@@H](O[C@H]2[C@@H](O)C[C@H](O[C@H]3[C@@H](O)C[C@H](O[C@H]4CC[C@@]5(C)[C@H](CC[C@@H]6[C@@H]5C[C@@H](O)[C@]5(C)[C@@H](C7=CC(=O)OC7)CC[C@]65O)C4)O[C@@H]3C)O[C@@H]2C)C[C@H](O)[C@@H]1O [Digoxin, 3beta-{[2,6-Dideoxy-beta-D-ribo-hexopyranosyl-(1->4)-2,6-dideoxy-beta-D-ribo-hexopyranosyl-(1->4)-2,6-dideoxy-beta-D-ribo-hexopyranosyl]oxy}-12beta,14-dihydroxy-5beta-card-20(22)-enolide]",Specific binding,[10],0.7%
same,Specific binding,[1],-2.7%
same,Specific binding,[2]; IPP screening at 10 uM,11.3%
same,Specific binding,[3],19.6%
same,Specific binding,[11]; IPP screening at 10 uM,26.2%
same,"IPP screening %, Coactivator recruitment",[5]; 10 uM,1.0%
same,"IPP screening %, Specific binding",[6]; [26],-7.0%
same,pod_cell_stress PoD,[7],0.0001773 µM
same,pod_httr_bifrost PoD,[12],0.007046 µM
same,podl_path_minbmd PoD,[12],0.02695 µM
same,pod_httr_bifrost PoD,[13],0.01449 µM
same,podl_path_minbmd PoD,[13],0.04151 µM
same,pod_httr_bifrost PoD,[14],0.003833 µM
same,podl_path_minbmd PoD,[14],0.02134 µM
same,L2 Cmax estimate underprediction of the L3 plasma Cmax,"[24]; largest of any underprediction, printed with ∼",30- to 50 fold
same,underprediction of the L3 result at L2 (Cmax),[24]; therapeutic uses,≥ 5 fold
same,Specific binding,[8]; [27],-2.6%
same,"IPP screening %, Specific binding",[25],-6.2%
